From ChEMBL document CHEMBL1124887, “Antiinflammatory agents. 4. Syntheses and biological evaluation of potential prodrugs of 2-amino-3-benzoylbenzeneacetic acid and 2-amino-3-(4-chlorobenzoyl)benzeneacetic acid” (J Med Chem, 1990)
pIC50: −log10 of the molar value. The source made the active and inactive calls. No cut-off for these calls is given here.

Tests used:
[1] = Antiinflammatory activity was tested in Pleural effusion rate assay and the percent change in average volume of pleural fluid at the dose of 316 mg/kg; Inactive
Cyclooxygenase = molecular target: T1, Cyclooxygenase (Rattus norvegicus, UniProt P35355+Q63921)
T1 sequence (P35355 whole entry): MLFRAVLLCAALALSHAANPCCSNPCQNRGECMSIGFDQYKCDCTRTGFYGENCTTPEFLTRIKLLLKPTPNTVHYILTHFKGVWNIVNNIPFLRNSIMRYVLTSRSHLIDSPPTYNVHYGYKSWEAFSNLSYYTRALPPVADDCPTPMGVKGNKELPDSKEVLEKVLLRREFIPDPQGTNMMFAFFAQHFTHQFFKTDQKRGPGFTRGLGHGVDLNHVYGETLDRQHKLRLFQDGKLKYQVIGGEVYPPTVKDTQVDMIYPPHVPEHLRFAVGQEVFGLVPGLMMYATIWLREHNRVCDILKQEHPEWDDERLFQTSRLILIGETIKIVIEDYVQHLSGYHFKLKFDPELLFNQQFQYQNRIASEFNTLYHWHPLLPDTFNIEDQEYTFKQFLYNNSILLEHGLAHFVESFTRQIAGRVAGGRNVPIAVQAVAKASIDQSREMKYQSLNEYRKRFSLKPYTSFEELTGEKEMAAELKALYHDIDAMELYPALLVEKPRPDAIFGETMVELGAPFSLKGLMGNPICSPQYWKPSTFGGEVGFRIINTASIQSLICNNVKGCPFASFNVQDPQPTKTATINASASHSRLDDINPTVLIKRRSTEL
T1 sequence (Q63921 whole entry): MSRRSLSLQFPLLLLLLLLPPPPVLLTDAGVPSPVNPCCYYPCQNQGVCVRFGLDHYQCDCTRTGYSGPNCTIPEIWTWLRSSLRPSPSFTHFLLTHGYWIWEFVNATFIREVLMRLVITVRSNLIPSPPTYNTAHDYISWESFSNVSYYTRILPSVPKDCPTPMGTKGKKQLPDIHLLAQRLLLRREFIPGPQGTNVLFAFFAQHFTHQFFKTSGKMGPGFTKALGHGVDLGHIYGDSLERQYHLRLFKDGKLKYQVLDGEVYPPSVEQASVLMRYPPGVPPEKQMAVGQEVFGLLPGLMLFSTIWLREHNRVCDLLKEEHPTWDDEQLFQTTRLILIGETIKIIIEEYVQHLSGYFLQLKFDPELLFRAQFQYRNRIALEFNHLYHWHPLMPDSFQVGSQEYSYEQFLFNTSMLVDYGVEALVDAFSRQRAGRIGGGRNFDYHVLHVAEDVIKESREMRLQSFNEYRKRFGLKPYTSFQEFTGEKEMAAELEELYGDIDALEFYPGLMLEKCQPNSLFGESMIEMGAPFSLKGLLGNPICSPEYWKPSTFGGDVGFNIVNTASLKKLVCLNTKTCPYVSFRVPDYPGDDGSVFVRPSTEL

Rattus norvegicus [2] = species on record: Rattus norvegicus; experiment: Pharmacological potency relative to indomethacin for prodrug candidate by adjuvant-induced arthritis assay; format: functional
Rattus norvegicus [3] = species on record: Rattus norvegicus; experiment: (§1) Potency in adjuvant-induced arthritis assay/ potency in intestinal toxicity assay.; format: functional
Rattus norvegicus [4] = species on record: Rattus norvegicus; experiment: potency in adjuvant-induced arthritis assay/ potency in intestinal toxicity assay.; format: functional
[5] = as §1; conditions: read-out: Therapeutic index
Rattus norvegicus [6] = experiment: Antiinflammatory activity was tested in Pleural effusion rate assay for and the percent change in average volume of pleural fluid at the dose of 4.0 mg/kg; format: functional
[7] = molecular target: Prostaglandin G/H synthase 1 (Ovis aries) (UniProt P05979); experiment: Inhibitory activity against Prostaglandin G/H synthase

Row | SMILES | IC50 (Cyclooxygenase) [µM] | Potency (Rattus norvegicus [2]) | Therapeutic index (Rattus norvegicus [3]) | other results
1 | O=C1Cc2cccc(C(=O)c3ccc(Cl)cc3)c2N1 | – | – | – | Change [1]: inactive
2 | CN(C)c1c(CC(=O)O)cccc1C(=O)c1ccccc1 | > 1000 | 0.009 | – | –
3 | COc1ccc2c(c1)c(CC(=O)O)c(C)n2C(=O)c1ccc(Cl)cc1 [INDOMETHACIN] | – | 1 | – | –
4 | CCOC(=O)Cc1cccc(C(=O)c2ccc(Cl)cc2)c1NC(=O)C(F)(F)F | > 1000 | 1 | 3.3 | –
5 | Nc1c(CC(=O)[O-])cccc1C(O)c1ccccc1.[Na+] (stereo unspecified) | > 1000 | 0.001 | – | –
6 | Nc1c(CCO)cccc1C(=O)c1ccc(Cl)cc1 | > 1000 | 0.8 | 3.3 | –
7 | CC(=O)c1cccc(C(=O)c2ccccc2)c1N | – | – | – | Change [1]: inactive
8 | Nc1c(CCO)cccc1C(=O)c1ccccc1 | > 100 | 0.05 | – | –
9 | NC(=O)Cc1cccc(C(=O)c2ccccc2)c1N | > 100 | 0.09 | – | –
10 | O=C(O)Cc1cccc2c(-c3ccc(Cl)cc3)onc12 | > 500 | 1 | – | Therapeutic index (Rattus norvegicus [4]): 1
11 | Nc1c(CC(=O)[O-])cccc1C(O)c1ccc(Cl)cc1.[Na+] (stereo unspecified) | > 1000 | 0.002 | – | –
12 | Nc1c(CCO)cccc1C(O)c1ccc(Cl)cc1 (stereo unspecified) | > 1000 | 0.05 | – | –
13 | O=C1Cc2cccc(C(=O)c3ccccc3)c2N1 | – | – | – | Change [1]: inactive
14 | O=C(O)Cc1cccc(C(=O)c2ccc(Cl)cc2)c1[N+](=O)[O-] | – | 1.7 | – | selectivity ratio [5]: 3.4; Change (Rattus norvegicus [6]): -21%; pIC50 [7]: < 3.00
15 | Nc1c(CCO)cccc1C(O)c1ccccc1 (stereo unspecified) | > 500 | 0.005 | – | –
16 | Nc1c(C(=O)CCC(=O)O)cccc1C(=O)c1ccc(Cl)cc1 | > 1000 | 0.9 | 3 | –
17 | CC(=O)Nc1c(CC(=O)O)cccc1C(=O)c1ccccc1 | – | – | – | Change [1]: inactive
18 | N#CCc1cccc(C(=O)c2ccc(Cl)cc2)c1N | – | – | – | Change [1]: inactive
19 | NC(=O)Cc1cccc(C(=O)c2ccc(Cl)cc2)c1N | > 1000 | 0.8 | 10 | –
20 | O=C(O)Cc1cccc(C(=O)c2ccccc2)c1[N+](=O)[O-] | > 1000 | 0.5 | 5 | –
21 | Nc1c(CC(=O)[O-])cccc1C(=O)C1CCCCC1.[Na+] | – | 0.004 | – | –
22 | Nc1c(CC(=O)[O-])cccc1C(=O)c1ccccc1.[Na+] [AMFENAC SODIUM] | 0.1 | 1.1 | 2.8 | –
23 | O=C(O)Cc1cccc2c(-c3ccccc3)onc12 | > 1000 | 0.6 | 2.5 | –
24 | CCOC(=O)Cc1cccc(C(=O)c2ccccc2)c1N | 50 | 0.3 | 0.4 | –
25 | CCOC(=O)Cc1cccc(C(=O)c2ccc(Cl)cc2)c1N | 73 | 1 | 1.7 | –
26 | Nc1c(CC(=O)[O-])cccc1C(=O)c1ccc(Cl)cc1.[Na+] | 0.1 | 2.2 | 1.6 | –
27 | Nc1c(C(=O)CCC(=O)O)cccc1C(=O)c1ccccc1 | > 1000 | 0.4 | 2.5 | –
